Reference: US5691381A, “Hydroxamic and carbocyclic acids as metalloprotease inhibitors” (The DuPont Merck Pharmaceutical Company, priority 1996, dated 1997)

System: cartilage degradation (proteoglycan content in the synovial fluid)
Test: Acute Cartilage Degradation Rat Model
Format: in vivo
Conditions: rats, after compound administration
Excerpt: An in vivo model of acute cartilage degradation in rats has been characterized as a method to determine the proteoglycan content in the synovial fluid after the induction of cartilage degradation.

COc1ccc2c(c1)c(CC(=O)O)c(C)n2C(=O)c1ccc(Cl)cc1 [Indomethacin]
inhibition of cartilage degradation, as measured by increased proteoglycan content in the synovial fluid: inactive
